Assay results from US20240384350A1, “METHODS OF TREATING CANCER WITH KINASE INHIBITORS” (BOARD OF REGENTS, THE UNIVERSITY OF TEXAS SYSTEM, priority 2021, published 2024).

Experiments:
Assay in all cases: Ba/F3 drug screening, Cell Titer Glo, IC50 Mut/WT
Type in all cases: cell-based
EGFR E709K = biological target: T1, EGFR E709K (Homo sapiens, UniProt P00533, E709K); settings: Ba/F3 cells, EGFR E709K (PACC), Mut/WT
T1 construct: expressed in transfected cells; host or cells: Ba/F3

EGFR N771dupN G724S = biological target: T2, EGFR N771dupN G724S (Homo sapiens, UniProt P00533, DUP771-771/G724S); settings: Ex20, 72 hours
T2 construct: expressed in transfected cells; host or cells: Ba/F3 cells, retroviral pBabe-Puro vector (vector made by GeneScript from EGFR G724S, c.2313_2314insAAC)

EGFR T725M = biological target: T3, EGFR T725M (Homo sapiens, UniProt P00533, T725M); settings: Classical-Like, 72 hours
T3 construct: expressed in transfected cells; host or cells: Ba/F3 cells, retroviral pBabe-Puro vector (vector made by GeneScript from EGFR WT)

EGFR L858R/T790M = biological target: T4, EGFR L858R/T790M (Homo sapiens, UniProt P00533, L858R/T790M); settings: T790M-like-3S, 72 hours
T4 construct: expressed in transfected cells; host or cells: Ba/F3
Protocol: Data represent the ratio of the IC50 value for a given TKI for cells with a T790M-like-3S EGFR mutation to the IC50 value for cells with wildtype EGFR.
(§1) Ba/F3 cell generation, drug screening, and IC50 approximations. Ba/F3 cells were obtained as a gift from Dr. Gordon Mills (MD Anderson Cancer Center), and maintained in RPMI (Sigma) containing 10% FBS, 1% penicillin/streptomycin, and 10 ng/ml recombinant mIL-3 (R&D Biosystems). To establish stable Ba/F3 cell lines, Ba/F3 cells were transduced with retroviruses containing mutant EGFR plasmids for 12-24 hours.
(§2) After 48-72 hours of transduction, 2 μg/ml puromycin (Invitrogen) was added to Ba/F3 cell lines in complete RPMI. To select for EGFR positive cell lines, cells were stained with PE-EGFR (Biolegend) and sorted by FACS. After sorting, EGFR positive cells were maintained in RPMI containing 10% FBS, 1% penicillin/streptomycin, and 1 ng/ml EGF to support cell viability. Drug screening was performed as previously described^41,42. Shortly, cells were plated in 384-well plates (Greiner Bio-One) at 2000-3000 cells per well in technical triplicate. Seven different concentrations of TKIs or DMSO vehicle were added to reach a final volume of 40 μL per well. After 72 hours, 11 μL of Cell Titer Glo (Promega) was added to each well. Plates were incubated for a minimum of 10 minutes, and bioluminescence was determined using a FLUOstar OPTIMA plate reader (BMG LABTECH). Raw bioluminescence values were normalized to DMSO control treated cells, and values were plotted in GraphPad Prism. […] Drug screens were performed in technical triplicate on each plate and either duplicate or triplicate biological replicates.

EGFR N771dupN = biological target: T5, EGFR N771dupN (Homo sapiens, UniProt P00533, DUP771-771); settings: Ex20, 72 hours
T5 construct: expressed in transfected cells; host or cells: Ba/F3 cells, retroviral pBabe-Puro vector
Protocol: (§3) Data represent the ratio of the IC50 value for a given TKI for cells with an ex20ins EGFR mutation to the IC50 value for cells with wildtype EGFR.
as §1
(§4) After 48-72 hours of transduction, 2 μg/ml puromycin (Invitrogen) was added to Ba/F3 cell lines in complete RPMI. To select for EGFR positive cell lines, cells were stained with PE-EGFR (Biolegend) and sorted by FACS. After sorting, EGFR positive cells were maintained in RPMI containing 10% FBS, 1% penicillin/streptomycin, and 1 ng/ml EGF to support cell viability. Drug screening was performed as previously described^41,42. Shortly, cells were plated in 384-well plates (Greiner Bio-One) at 2000-3000 cells per well in technical triplicate. Seven different concentrations of TKIs or DMSO vehicle were added to reach a final volume of 40 μL per well. After 72 hours, 11 μL of Cell Titer Glo (Promega) was added to each well. Plates were incubated for a minimum of 10 minutes, and bioluminescence was determined using a FLUOstar OPTIMA plate reader (BMG LABTECH). Raw bioluminescence values were normalized to DMSO control treated cells, and values were plotted in GraphPad Prism. […] Drug screens were performed in technical triplicate on each plate and either duplicate or triplicate biological replicates. […] Statistical differences between groups were determined by ANOVA as described in the figure legends.

EGFR R776C = biological target: T6, EGFR R776C (Homo sapiens, UniProt P00533, R776C); settings: Ba/F3 cells, EGFR R776C (PACC), Mut/WT
T6 construct: host or cells: Ba/F3

EGFR I740dupIPVAK = settings: Ba/F3 cells, EGFR I740dupIPVAK (PACC), Mut/WT
EGFR S768dupSVD V769M = biological target: T7, EGFR S768dupSVD V769M (Homo sapiens, UniProt P00533, INS768MDS/V769M); settings: Ex20, 72 hours
T7 construct: expressed in transfected cells; host or cells: Ba/F3 cells, retroviral pBabe-Puro vector (vector made by GeneScript from EGFR S768dupSVD, c.2305G > A)
Protocol: as §3, §1, §4

EGFR D761N = biological target: T8, EGFR D761N (Homo sapiens, UniProt P00533, D761N); settings: Classical-Like, 72 hours
T8 construct: expressed in transfected cells; host or cells: Ba/F3 cells, retroviral pBabe-Puro vector

EGFR D770insNPG = biological target: T9, EGFR D770insNPG (Homo sapiens, UniProt P00533, INS770NPG); settings: Ex20, 72 hours
T9 construct: expressed in transfected cells; host or cells: Ba/F3 cells, retroviral pBabe-Puro vector
Protocol: as §3, §1, §4

EGFR L858R/T790M/L718Q = biological target: T10, EGFR L858R/T790M/L718Q (Homo sapiens, UniProt P00533, L718Q/L858R/T790M); settings: T790M-like-3R, 72 hours
T10 construct: expressed in transfected cells; host or cells: Ba/F3

EGFR G724S T790M = biological target: T11, EGFR G724S T790M (Homo sapiens, UniProt P00533, G724S/T790M); settings: T790M-like-3R, 72 hours
T11 construct: expressed in transfected cells; host or cells: Ba/F3
Protocol: Data represent the ratio of the IC50 value for a given TKI for cells with a T790M-like-3R EGFR mutation to the IC50 value for cells with wildtype EGFR.
as §1
After 48-72 hours of transduction, 2 μg/ml puromycin (Invitrogen) was added to Ba/F3 cell lines in complete RPMI. To select for EGFR positive cell lines, cells were stained with PE-EGFR (Biolegend) and sorted by FACS. After sorting, EGFR positive cells were maintained in RPMI containing 10% FBS, 1% penicillin/streptomycin, and 1 ng/ml EGF to support cell viability. […] Shortly, cells were plated in 384-well plates (Greiner Bio-One) at 2000-3000 cells per well in technical triplicate. Seven different concentrations of TKIs or DMSO vehicle were added to reach a final volume of 40 μL per well. After 72 hours, 11 μL of Cell Titer Glo (Promega) was added to each well. Plates were incubated for a minimum of 10 minutes, and bioluminescence was determined using a FLUOstar OPTIMA plate reader (BMG LABTECH). Raw bioluminescence values were normalized to DMSO control treated cells, and values were plotted in GraphPad Prism. […] Drug screens were performed in technical triplicate on each plate and either duplicate or triplicate biological replicates. […] Statistical differences between groups were determined by ANOVA as described in the figure legends.

EGFR S768I = biological target: T12, EGFR S768I (Homo sapiens, UniProt P00533, S768I); settings: Ba/F3 cells, EGFR S768I (PACC), Mut/WT
T12 construct: expressed in transfected cells; host or cells: Ba/F3

EGFR S720P = biological target: T13, EGFR S720P (Homo sapiens, UniProt P00533, S720P); settings: Classical-Like, 72 hours
T13 construct: expressed in transfected cells; host or cells: Ba/F3 cells, retroviral pBabe-Puro vector (vector made by GeneScript from EGFR WT)

EGFR K754E = biological target: T14, EGFR K754E (Homo sapiens, UniProt P00533, K754E); settings: Classical-Like, 72 hours
T14 construct: expressed in transfected cells; host or cells: Ba/F3 cells, retroviral pBabe-Puro vector
Protocol: (§5) Data represent the ratio of the IC50 value for a given TKI for cells with a classical-like EGFR mutation to the IC50 value for cells with wildtype EGFR.
as §1
(§6) After 48-72 hours of transduction, 2 μg/ml puromycin (Invitrogen) was added to Ba/F3 cell lines in complete RPMI. To select for EGFR positive cell lines, cells were stained with PE-EGFR (Biolegend) and sorted by FACS. After sorting, EGFR positive cells were maintained in RPMI containing 10% FBS, 1% penicillin/streptomycin, and 1 ng/ml EGF to support cell viability. […] Shortly, cells were plated in 384-well plates (Greiner Bio-One) at 2000-3000 cells per well in technical triplicate. Seven different concentrations of TKIs or DMSO vehicle were added to reach a final volume of 40 μL per well. After 72 hours, 11 μL of Cell Titer Glo (Promega) was added to each well. Plates were incubated for a minimum of 10 minutes, and bioluminescence was determined using a FLUOstar OPTIMA plate reader (BMG LABTECH). Raw bioluminescence values were normalized to DMSO control treated cells, and values were plotted in GraphPad Prism. […] Drug screens were performed in technical triplicate on each plate and either duplicate or triplicate biological replicates.

EGFR L858R/L718V = biological target: T15, EGFR L858R/L718V (Homo sapiens, UniProt P00533, L718V/L858R); settings: Ba/F3 cells, EGFR L858R/L718V (PACC), Mut/WT
T15 construct: host or cells: Ba/F3
Protocol: Data represent the ratio of the IC50 value for a given TKI for cells with a PACC EGFR mutation to the IC50 value for cells with wildtype EGFR.
as §1, §2

EGFR Ex19del/L792H = biological target: T16, EGFR Ex19del/L792H (Homo sapiens, UniProt P00533, DEL746-750/L792H); settings: Ba/F3 cells, EGFR Ex19del/L792H (PACC), Mut/WT
T16 construct: expressed in transfected cells; host or cells: Ba/F3

EGFR E709A G719S = biological target: T17, EGFR E709A G719S (Homo sapiens, UniProt P00533, E709A/G719S); settings: Ba/F3 cells, EGFR E709A G719S (PACC), Mut/WT
T17 construct: expressed in transfected cells; host or cells: Ba/F3

EGFR G719A/R776C = biological target: T18, EGFR G719A/R776C (Homo sapiens, UniProt P00533, G719A/R776C); settings: Ba/F3 cells, EGFR G719A/R776C (PACC), Mut/WT
T18 construct: expressed in transfected cells; host or cells: Ba/F3

EGFR H773insNPH = biological target: T19, EGFR H773insNPH (Homo sapiens, UniProt P00533, INS773NPH); settings: Ex20, 72 hours
T19 construct: expressed in transfected cells; host or cells: Ba/F3 cells, retroviral pBabe-Puro vector

EGFR Ex19del T854I = biological target: T20, EGFR Ex19del T854I (Homo sapiens, UniProt P00533, DEL746-750/T854I); settings: Ba/F3 cells, EGFR Ex19del T854I (PACC), Mut/WT
T20 construct: expressed in transfected cells; host or cells: Ba/F3 (retroviral transduction, pBabe-Puro based vectors)

EGFR Ex19del T790M = biological target: T21, EGFR Ex19del T790M (Homo sapiens, UniProt P00533, DEL746-750/T790M); settings: T790M-like-3S, 72 hours
T21 construct: expressed in transfected cells; host or cells: Ba/F3

EGFR Ex19del/C797S = biological target: T22, EGFR Ex19del/C797S (Homo sapiens, UniProt P00533, C797S/DEL746-750); settings: Ba/F3 cells, EGFR Ex19del/C797S (PACC), Mut/WT
T22 construct: expressed in transfected cells; host or cells: Ba/F3

EGFR G724S = biological target: T23, EGFR G724S (Homo sapiens, UniProt P00533, G724S); settings: Ba/F3 cells, EGFR G724S (PACC), Mut/WT
T23 construct: expressed in transfected cells; host or cells: Ba/F3

EGFR Ex19del/T790M/G724S = biological target: T24, EGFR Ex19del/T790M/G724S (Homo sapiens, UniProt P00533, DEL746-750/G724S/T790M); settings: T790M-like-3S, 72 hours
T24 construct: expressed in transfected cells; host or cells: Ba/F3

EGFR E709K L858R = biological target: T25, EGFR E709K L858R (Homo sapiens, UniProt P00533, E709K/L858R); settings: Classical-Like, 72 hours
T25 construct: expressed in transfected cells; host or cells: Ba/F3 cells, retroviral pBabe-Puro vector
Protocol: as §5, §1, §6

SMILES | ratio of the IC50 value for cells with a PACC EGFR mutation to the IC50 value for cells with wildtype EGFR (EGFR E709K) | ratio of IC50 for cells with mutant EGFR to IC50 for cells with wildtype EGFR (Mut/WT) (EGFR N771dupN G724S) | ratio of IC50 for cells with mutant EGFR to IC50 for cells with wildtype EGFR (Mut/WT) (EGFR T725M) | ratio of IC50 for cells with mutant EGFR to IC50 for cells with wildtype EGFR (Mut/WT) (EGFR L858R/T790M) | ratio of IC50 for cells with mutant EGFR to IC50 for cells with wildtype EGFR (Mut/WT) (EGFR N771dupN) | ratio of the IC50 value for cells with a PACC EGFR mutation to the IC50 value for cells with wildtype EGFR (EGFR R776C) | ratio of the IC50 value for cells with a PACC EGFR mutation to the IC50 value for cells with wildtype EGFR (EGFR I740dupIPVAK) | ratio of IC50 for cells with mutant EGFR to IC50 for cells with wildtype EGFR (Mut/WT) (EGFR S768dupSVD V769M) | ratio of IC50 for cells with mutant EGFR to IC50 for cells with wildtype EGFR (Mut/WT) (EGFR D761N) | ratio of IC50 for cells with mutant EGFR to IC50 for cells with wildtype EGFR (Mut/WT) (EGFR D770insNPG) | ratio of IC50 for cells with mutant EGFR to IC50 for cells with wildtype EGFR (Mut/WT) (EGFR L858R/T790M/L718Q) | ratio of IC50 for cells with mutant EGFR to IC50 for cells with wildtype EGFR (Mut/WT) (EGFR G724S T790M) | ratio of the IC50 value for cells with a PACC EGFR mutation to the IC50 value for cells with wildtype EGFR (EGFR S768I) | ratio of IC50 for cells with mutant EGFR to IC50 for cells with wildtype EGFR (Mut/WT) (EGFR S720P) | ratio of IC50 for cells with mutant EGFR to IC50 for cells with wildtype EGFR (Mut/WT) (EGFR K754E) | ratio of the IC50 value for cells with a PACC EGFR mutation to the IC50 value for cells with wildtype EGFR (EGFR L858R/L718V) | ratio of the IC50 value for cells with a PACC EGFR mutation to the IC50 value for cells with wildtype EGFR (EGFR Ex19del/L792H) | ratio of the IC50 value for cells with a PACC EGFR mutation to the IC50 value for cells with wildtype EGFR (EGFR E709A G719S) | ratio of the IC50 value for cells with a PACC EGFR mutation to the IC50 value for cells with wildtype EGFR (EGFR G719A/R776C) | ratio of IC50 for cells with mutant EGFR to IC50 for cells with wildtype EGFR (Mut/WT) (EGFR H773insNPH) | other results
C=CC(=O)Nc1cc(Nc2nccc(-c3c[nH]c4ccccc34)n2)c(OC)cc1N(C)CCN(C)C [AZ5104] | 0.207 | 1.826 | 0.959 | 0.1777 | 0.6044 | 0.1019 | 2.234 | 0.3864 | 0.3285 | 1.976 | 29.86 | 0.428 | 1.361 | 0.009841 | 0.01871 | 1.64 | 1.778 | 0.797 | 0.2136 | 3.997 | ratio of the IC50 value for cells with a PACC EGFR mutation to the IC50 value for cells with wildtype EGFR (EGFR Ex19del T854I): 1.699; ratio of IC50 for cells with mutant EGFR to IC50 for cells with wildtype EGFR (Mut/WT) (EGFR Ex19del T790M): 0.1837; ratio of the IC50 value for cells with a PACC EGFR mutation to the IC50 value for cells with wildtype EGFR (EGFR Ex19del/C797S): 49.96; ratio of the IC50 value for cells with a PACC EGFR mutation to the IC50 value for cells with wildtype EGFR (EGFR G724S): 36.15; ratio of IC50 for cells with mutant EGFR to IC50 for cells with wildtype EGFR (Mut/WT) (EGFR Ex19del/T790M/G724S): 1.673; ratio of IC50 for cells with mutant EGFR to IC50 for cells with wildtype EGFR (Mut/WT) (EGFR E709K L858R): 0.1151
C=CC(=O)N[C@H]1C=C(C)c2c(-c3cnc4ccccc4c3)c3c(N)ncnc3n2C1 [TAS 6417] | 0.2516 | 0.05113 | 0.02572 | 0.01963 | 0.05134 | 0.1072 | 0.3555 | 0.02679 | 0.2474 | 0.0168 | 3.055 | 0.1693 | 0.0846 | 0.01035 | 0.004475 | 0.01509 | 0.008269 | 0.03472 | 3.055 | 0.1843 | ratio of the IC50 value for cells with a PACC EGFR mutation to the IC50 value for cells with wildtype EGFR (EGFR Ex19del T854I): 0.0152; ratio of IC50 for cells with mutant EGFR to IC50 for cells with wildtype EGFR (Mut/WT) (EGFR Ex19del T790M): 0.001513; ratio of the IC50 value for cells with a PACC EGFR mutation to the IC50 value for cells with wildtype EGFR (EGFR Ex19del/C797S): 1.093; ratio of the IC50 value for cells with a PACC EGFR mutation to the IC50 value for cells with wildtype EGFR (EGFR G724S): 3.055; ratio of IC50 for cells with mutant EGFR to IC50 for cells with wildtype EGFR (Mut/WT) (EGFR Ex19del/T790M/G724S): 0.1997; ratio of IC50 for cells with mutant EGFR to IC50 for cells with wildtype EGFR (Mut/WT) (EGFR E709K L858R): 0.002607
